From the supplement of paper PMC13380429

Experiments:
Details in all cases: 72 h
Vero E6 [1] = experiment: relative viability EC50 (midpoint between 100% and the lowest measured viability); higher = less toxic
U2OS [2] = experiment: as above
HepG2 [3] = experiment: as above
Calu-3 [4] = experiment: as above
Caco-2 [5] = experiment: as above
Vero E6 [6] = experiment: drug sensitivity score (DSS) for viability; higher = more toxic; extreme values may be limits of the assay
U2OS [7] = experiment: as above
HepG2 [8] = experiment: as above
Calu-3 [9] = experiment: as above
Caco-2 [10] = experiment: as above
Vero E6 [11] = experiment: cell viability relative to DMSO; higher = less toxic
U2OS [12] = experiment: as above
HepG2 [13] = experiment: as above
Calu-3 [14] = experiment: as above
Caco-2 [15] = experiment: as above

Row | SMILES | relative viability EC50 (Vero E6 [1]) [µM] | relative viability EC50 (U2OS [2]) [µM] | relative viability EC50 (HepG2 [3]) [µM] | relative viability EC50 (Calu-3 [4]) [µM] | relative viability EC50 (Caco-2 [5]) [µM] | drug sensitivity score (Vero E6 [6]) | drug sensitivity score (U2OS [7]) | drug sensitivity score (HepG2 [8]) | drug sensitivity score (Calu-3 [9]) | drug sensitivity score (Caco-2 [10]) | cell viability (Vero E6 [11]; 1 nM) [%] | cell viability (Vero E6 [11]; 10 nM) [%] | cell viability (Vero E6 [11]; 100 nM) [%] | cell viability (Vero E6 [11]; 1000 nM) [%] | cell viability (Vero E6 [11]; 10000 nM) [%] | cell viability (U2OS [12]; 1 nM) [%] | cell viability (U2OS [12]; 10 nM) [%] | cell viability (U2OS [12]; 100 nM) [%] | cell viability (U2OS [12]; 1000 nM) [%] | cell viability (U2OS [12]; 10000 nM) [%] | cell viability (HepG2 [13]; 1 nM) [%] | cell viability (HepG2 [13]; 10 nM) [%] | cell viability (HepG2 [13]; 100 nM) [%] | cell viability (HepG2 [13]; 1000 nM) [%] | cell viability (HepG2 [13]; 10000 nM) [%] | cell viability (Calu-3 [14]; 1 nM) [%] | cell viability (Calu-3 [14]; 10 nM) [%] | cell viability (Calu-3 [14]; 100 nM) [%] | cell viability (Calu-3 [14]; 1000 nM) [%] | cell viability (Calu-3 [14]; 10000 nM) [%] | cell viability (Caco-2 [15]; 1 nM) [%] | cell viability (Caco-2 [15]; 10 nM) [%] | cell viability (Caco-2 [15]; 100 nM) [%] | cell viability (Caco-2 [15]; 1000 nM) [%] | cell viability (Caco-2 [15]; 10000 nM) [%]
1 | c1ccc(CC2=NCCN2)cc1 [tolazoline] | > 10 | > 10 | > 10 | > 10 | > 10 | 0 | 0 | 0 | 0 | 0 | 108 | 111 | 104 | 106 | 98.6 | 99.9 | 97.9 | 102 | 101 | 101 | 97.3 | 102 | 101 | 108 | 99.9 | 103 | 103 | 87.3 | 98.4 | 114 | 103 | 93.1 | 97.5 | 95 | 98
2 | Cc1cccc(N(C)C(=S)Oc2ccc3ccccc3c2)c1 [tolnaftate] | > 10 | > 10 | > 10 | > 10 | > 10 | 0.1 | 0 | 0 | 0 | 0 | 101 | 102 | 98.5 | 91.8 | 88.6 | 99.1 | 99.2 | 94.9 | 100 | 93.3 | 100 | 100 | 91.6 | 97.9 | 93.8 | 98 | 90 | 94 | 94.6 | 101 | 93.3 | 99.7 | 94 | 94.8 | 96.8
3 | Cc1ccc(C(=O)C(C)CN2CCCCC2)cc1 (stereo not given) [tolperisone] | > 10 | > 10 | > 10 | > 10 | > 10 | 0 | 0 | 0.1 | 0 | 0 | 97.6 | 99.4 | 104 | 100 | 99.4 | 102 | 100 | 97.2 | 98.4 | 98.1 | 94.2 | 95 | 96.3 | 102 | 86.5 | 107 | 93.2 | 110 | 100 | 99.4 | 92.4 | 98.5 | 94.9 | 94.4 | 94.6
4 | CC(=O)Oc1cc(C(F)(F)F)ccc1C(=O)O [triflusal] | > 10 | > 10 | > 10 | > 10 | > 10 | 0 | 0 | 0 | 0 | 0 | 99.4 | 96.9 | 97.7 | 100 | 94.5 | 96.2 | 102 | 99.5 | 97.9 | 101 | 90.6 | 90.5 | 92.1 | 101 | 111 | 98.6 | 97.9 | 93.5 | 92.2 | 103 | 96 | 106 | 90 | 98.4 | 103
5 | CCOC(=O)N[C@@H]1CC[C@@H]2[C@@H](C1)C[C@H]1C(=O)O[C@H](C)[C@H]1[C@H]2/C=C/c1ccc(-c2cccc(F)c2)cn1 [vorapaxar] | > 10 | > 10 | > 10 | > 10 | > 10 | 0 | 0 | 0 | 0 | 0.2 | 92.5 | 103 | 99.8 | 92.7 | 105 | 102 | 98.7 | 102 | 102 | 89.1 | 105 | 112 | 100 | 99.9 | 94.3 | 98 | 95 | 102 | 94.3 | 99.9 | 90 | 93.2 | 103 | 105 | 83
